Reference: patent publication US6348445B1, “Biologically active peptides with reduced toxicity in animals and a method for preparing same” (priority 1992, dated 2002)
Where no end group is shown, it is not given here.

Experiments:
[1] = MTD and LD50, single intravenous administration; assay type: in vivo, mice
Description: (§1) Determinations of a maximal tolerated dose (MTD) of a single intravenous (i.v.) administration or intraperitoneal (i.p.) administration of MSI-344 or MSI-1857 in 100 CD-1®BR mice were done. The MTD of a single intravenous (i.v.) administration was 10 mg/kg for MSI-344 and 60 mg/kg for MSI-1857. The MTD of a single intraperitoneal (i.p.) administration was less than 20 mg/kg for MSI-344 and between 50 and 100 mg/kg for MSI-1857.
(§2) To determine estimates of MTDs and LD50s of MSI-344 and MSI-1857 administered intravenously or intraperitoneally as a single bolus in mice.
(§3) A 5 mg/mL solution of MSI-344 was made in saline (0.9% sodium chloride injection USP, Abbott, North Chicago, Ill.) corrected for peptide content. Solutions of MSI-344 at concentrations of 4, 3, 2, 1.5, 1, and 0.5 mg/mL were made by diluting the 5 mg/mL solution using saline as diluent. (Errors were made in solution preparation of the 4, 3, and 2 mg/mL solutions and results from groups with animals doses with these solutions, i.e. groups 12, 13, and 14, were eliminated from study analysis). A 20 mg/mL solution of MSI-1857 was made in saline. Solutions of MSI-1857 at concentrations of 15, 10, 8, 6, and 5 mg/mL were made by diluting the 20 mg/mL solution using saline as diluent.
(§4) Another 5 mg/mL solution of MSI-344 was made in saline corrected for peptide content. Solutions of 4, 3 and 2 mg/mL were made by diluting the 5 mg/mL solution using saline as diluent. A 15 mg/mL solution of MSI-1857 in saline was made corrected for peptide content. A 10 mg/mL solution was made by diluting the 15 mg/mL solution with saline.
(§5) Mice (four mice per dose group) were intravenously or intraperitoneally administered a single bolus of MSI-344 or MSI-1857 using an injection volume of 10 mL/kg of the appropriate solution concentration. If the first two mice in a group died immediately (within 10 secs) after administration of a dose then no other mice injected with this dose of this compound (for ethical reasons). Survival was monitored daily for at least eight days post-administration. Study designs are presented in Tables IX and X. Toxicity Study # 262 was a supplement to Toxicity Study #261.

[2] = MTD and LD50, single intraperitoneal administration; assay type: in vivo, mice; details: for No. of Survivors Day 1 / No. of Survivors Day 2 / No. of Survivors Day 3 / No. of Survivors Day 4 / No. of Survivors Day 5 / No. of Survivors Day 6 / No. of Survivors Day 7 / No. of Survivors Day 8 / No. of Survivors Day 11: 4 injected
Description: as §1, §2, §3, §4, §5

[3] = Tox Study #261 group 2, 20 mg/kg IV, 2 injected
[4] = Tox Study #261 group 3, 15 mg/kg IV, 2 injected
[5] = Tox Study #261 group 4, 10 mg/kg IV, 4 injected
[6] = Tox Study #261 group 5, 5 mg/kg IV, 4 injected
[7] = Tox Study 262 group 2, 50 mg/kg IP
[8] = Tox Study 262 group 3, 40 mg/kg IP
[9] = Tox Study 262 group 4, 30 mg/kg IP
[10] = Tox Study 262 group 5, 20 mg/kg IP
[11] = Tox Study #261 group 11, 50 mg/kg IP
[12] = Tox Study #261 group 12, dose TBD (solution error, eliminated from analysis) IP
[13] = Tox Study #261 group 13, dose TBD (solution error, eliminated from analysis) IP
[14] = Tox Study #261 group 14, dose TBD (solution error, eliminated from analysis) IP

## GIGKFLKKAKKFGKAFVKILKK [MSI-344]
[1]; [3]
  No. of Survivors Day 1: 0
  No. of Survivors Day 2: 0
  No. of Survivors Day 3: 0
  No. of Survivors Day 4: 0
  No. of Survivors Day 5: 0
  No. of Survivors Day 6: 0
  No. of Survivors Day 7: 0
  No. of Survivors Day 8: 0
[1]; [4]
  No. of Survivors Day 1: 0
  No. of Survivors Day 2: 0
  No. of Survivors Day 3: 0
  No. of Survivors Day 4: 0
  No. of Survivors Day 5: 0
  No. of Survivors Day 6: 0
  No. of Survivors Day 7: 0
  No. of Survivors Day 8: 0
[1]; [5]
  No. of Survivors Day 1: 4
  No. of Survivors Day 2: 4
  No. of Survivors Day 3: 4
  No. of Survivors Day 4: 4
  No. of Survivors Day 5: 4
  No. of Survivors Day 6: 4
  No. of Survivors Day 7: 4
  No. of Survivors Day 8: 4
[1]; [6]
  No. of Survivors Day 1: 4
  No. of Survivors Day 2: 4
  No. of Survivors Day 3: 4
  No. of Survivors Day 4: 4
  No. of Survivors Day 5: 4
  No. of Survivors Day 6: 4
  No. of Survivors Day 7: 4
  No. of Survivors Day 8: 4
[1]; mouse, in vivo, iv, CD-1 mice, estimated from dose response curves
  LD50: 12.5 mg/kg
[1]; mouse, in vivo, iv, CD-1 mice, read-out: MTD of a single intravenous (i.v.) administration
  MTD: 10 mg/kg
[2]; [7]
  No. of Survivors Day 1: 0
  No. of Survivors Day 2: 0
  No. of Survivors Day 3: 0
  No. of Survivors Day 4: 0
  No. of Survivors Day 5: 0
  No. of Survivors Day 6: 0
  No. of Survivors Day 7: 0
  No. of Survivors Day 8: 0
  No. of Survivors Day 11: 0
[2]; [8]
  No. of Survivors Day 1: 0
  No. of Survivors Day 2: 0
  No. of Survivors Day 3: 0
  No. of Survivors Day 4: 0
  No. of Survivors Day 5: 0
  No. of Survivors Day 6: 0
  No. of Survivors Day 7: 0
  No. of Survivors Day 8: 0
  No. of Survivors Day 11: 0
[2]; [9]
  No. of Survivors Day 1: 0
  No. of Survivors Day 2: 0
  No. of Survivors Day 3: 0
  No. of Survivors Day 4: 0
  No. of Survivors Day 5: 0
  No. of Survivors Day 6: 0
  No. of Survivors Day 7: 0
  No. of Survivors Day 8: 0
  No. of Survivors Day 11: 0
[2]; [10]
  No. of Survivors Day 1: 3
  No. of Survivors Day 2: 3
  No. of Survivors Day 3: 3
  No. of Survivors Day 4: 3
  No. of Survivors Day 5: 3
  No. of Survivors Day 6: 3
  No. of Survivors Day 7: 3
  No. of Survivors Day 8: 3
  No. of Survivors Day 11: 3
[2]; [11]
  No. of Survivors Day 1: 0
  No. of Survivors Day 2: 0
  No. of Survivors Day 3: 0
  No. of Survivors Day 4: 0
  No. of Survivors Day 5: 0
  No. of Survivors Day 6: 0
  No. of Survivors Day 7: 0
  No. of Survivors Day 8: 0
[2]; [12]
  No. of Survivors Day 1: 2
  No. of Survivors Day 2: 1
  No. of Survivors Day 3: 1
  No. of Survivors Day 4: 1
  No. of Survivors Day 5: 1
  No. of Survivors Day 6: 1
  No. of Survivors Day 7: 1
  No. of Survivors Day 8: 1
[2]; [13]
  No. of Survivors Day 1: 0
  No. of Survivors Day 2: 0
  No. of Survivors Day 3: 0
  No. of Survivors Day 4: 0
  No. of Survivors Day 5: 0
  No. of Survivors Day 6: 0
  No. of Survivors Day 7: 0
  No. of Survivors Day 8: 0
[2]; [14]
  No. of Survivors Day 1: 2
  No. of Survivors Day 2: 1
  No. of Survivors Day 3: 1
  No. of Survivors Day 4: 1
  No. of Survivors Day 5: 1
  No. of Survivors Day 6: 1
  No. of Survivors Day 7: 1
  No. of Survivors Day 8: 1
[2]; mouse, in vivo, ip, CD-1 mice, estimated from dose response curves
  LD50: 23.5 mg/kg
[2]; mouse, in vivo, ip, CD-1 mice, read-out: MTD of a single intraperitoneal (i.p.) administration
  MTD: < 20 mg/kg
